17 compounds from patent publication US20100226881A1, “PYRAZOLO[1,5-a]PYRIDINES AND THEIR USE IN CANCER THERAPY” (Auckland Uniservices Limited, priority 2007, published 2010) can be followed below.

One experiment concerns the target p110δ/p85 (Homo sapiens, UniProt O00329). Put plainly: Inhibition of isolated enzyme, PI 3-kinase p110δ/p85. The experiment is classed as biochemical. The conditions noted are these: recombinant enzyme, 100 μM ATP, average of two experiments. The protocol: (§1) Compounds were evaluated for their ability to inhibit the Class I PI 3-kinase enzymes p110δ/p85, p110α/p85 and p110β/p85. Reaction mixtures comprising 0.1 μg of recombinant enzyme, 10 μg of L-α-phosphatidylinositol, the compound (DMSO only or DMSO+compound to a final concentration of 1%), 2× Lipid Kinase Buffer (40 mM Tris-HCl pH 7.4, 200 mM NaCl, 1 mM EDTA) were activated by the addition of an ATP mix (5 mM MgCl2, 100 μM ATP, 0.1 μL [γ^33P]ATP). […] Firstly, 200 μL of chloroform/methanol (1:1) was added, the biphasic reactions mixed and centrifuged briefly, and the inorganic phase was removed and discarded.

The next experiment has as its target p110α/p85 (Homo sapiens, UniProt P42336). Put plainly: Inhibition of isolated enzyme, PI 3-kinase p110α/p85.
Another experiment relates to NZOV9. In words: Cellular growth inhibition (3H-thymidine), NZOV9. The experiment is classed as cell-based. The settings on record: Homo sapiens, five days, 3H-thymidine incorporation, maximum 20 μM. As to the method:
(§2) The compounds were evaluated against two early passage human cell lines NZB5 and NZOV9, whose development and culture have been described [Marshall et al, Oncol. Res. 2004, 14, 297]. The cells were grown in ITS medium (α-modified minimal essential medium supplemented insulin, transferrin, selenite and 5% fetal bovine serum) and grown on 96-well tissue culture plates under an atmosphere of 5% O2, 5% CO2 and 90% N2. Individual wells contained 500-1000 cells (depending on the growth rate) in a volume of 150 μL. Compounds were added at 10-fold concentration steps to a maximum of 20 μM and plates were incubated for five days, with ^3H-thymidine being added over the last 6 h. Cells were harvested and incorporated radioactivity measured. Duplicate samples were analyzed for each compound dose with multiple control samples. Data were fitted by a least-squares method to an exponential of the form y=y0+ae^−bx, where y is the radioactivity (corrected for background and normalized to 100% of the control) x is the radiation dose, and y0, a and b are variables, and the IC50 value defined as the compound concentration reducing ^3H-thymidine levels by 50%.
On the technique in general: Dividing cells build labelled thymidine or BrdU into new DNA.

Another experiment concerns NZB5. Put plainly: Cellular growth inhibition (3H-thymidine), NZB5. The class given is cell-based. The settings on record: Homo sapiens, five days, 3H-thymidine incorporation, maximum 20 μM. As to the method:
as §2

A further experiment concerns the target p110β/p85 (Homo sapiens, UniProt P42338). Put plainly: Inhibition of isolated enzyme, PI 3-kinase p110β/p85. The experiment is classed as biochemical. The settings on record: recombinant enzyme, 100 μM ATP, average of two experiments. The protocol: as §1
Where [1] appears, read: read-out: IC50 (nM) p110α, recombinant enzyme, 100 μM ATP, average of two experiments.

Counter-ions that a name gives are not always drawn. Like-named read-outs stand apart in the source and are kept apart here.

Sequence of p110β/p85 (P42338 whole entry, species assumed): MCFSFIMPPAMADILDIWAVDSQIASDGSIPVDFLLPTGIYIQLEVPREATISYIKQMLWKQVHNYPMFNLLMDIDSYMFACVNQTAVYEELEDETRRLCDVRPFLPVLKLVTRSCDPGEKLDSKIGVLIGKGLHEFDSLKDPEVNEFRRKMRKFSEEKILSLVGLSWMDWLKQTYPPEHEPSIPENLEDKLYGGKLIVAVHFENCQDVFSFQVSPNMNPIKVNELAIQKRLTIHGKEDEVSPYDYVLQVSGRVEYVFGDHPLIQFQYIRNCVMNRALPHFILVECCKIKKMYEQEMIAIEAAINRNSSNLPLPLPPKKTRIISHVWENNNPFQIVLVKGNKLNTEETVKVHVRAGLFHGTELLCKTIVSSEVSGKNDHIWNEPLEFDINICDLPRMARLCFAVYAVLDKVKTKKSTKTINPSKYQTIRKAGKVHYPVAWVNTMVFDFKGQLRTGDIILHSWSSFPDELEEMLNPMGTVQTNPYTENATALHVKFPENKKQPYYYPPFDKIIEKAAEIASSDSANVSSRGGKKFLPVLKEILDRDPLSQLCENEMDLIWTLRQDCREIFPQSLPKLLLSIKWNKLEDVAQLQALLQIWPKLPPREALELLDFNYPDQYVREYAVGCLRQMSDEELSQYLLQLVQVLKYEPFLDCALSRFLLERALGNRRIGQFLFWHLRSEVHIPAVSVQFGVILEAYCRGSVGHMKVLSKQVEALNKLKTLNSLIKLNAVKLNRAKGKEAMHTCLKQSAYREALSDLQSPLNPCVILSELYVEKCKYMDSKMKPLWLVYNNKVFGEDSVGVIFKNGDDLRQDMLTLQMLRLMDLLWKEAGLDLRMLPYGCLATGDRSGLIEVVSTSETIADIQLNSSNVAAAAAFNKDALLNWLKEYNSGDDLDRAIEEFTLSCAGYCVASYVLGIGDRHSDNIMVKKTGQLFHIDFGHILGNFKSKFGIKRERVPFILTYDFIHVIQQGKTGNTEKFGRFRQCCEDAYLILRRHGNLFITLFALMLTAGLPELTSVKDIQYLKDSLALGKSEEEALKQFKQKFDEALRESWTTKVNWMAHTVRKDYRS
Sequence of p110β/p85 (P27986 whole entry partner, species assumed): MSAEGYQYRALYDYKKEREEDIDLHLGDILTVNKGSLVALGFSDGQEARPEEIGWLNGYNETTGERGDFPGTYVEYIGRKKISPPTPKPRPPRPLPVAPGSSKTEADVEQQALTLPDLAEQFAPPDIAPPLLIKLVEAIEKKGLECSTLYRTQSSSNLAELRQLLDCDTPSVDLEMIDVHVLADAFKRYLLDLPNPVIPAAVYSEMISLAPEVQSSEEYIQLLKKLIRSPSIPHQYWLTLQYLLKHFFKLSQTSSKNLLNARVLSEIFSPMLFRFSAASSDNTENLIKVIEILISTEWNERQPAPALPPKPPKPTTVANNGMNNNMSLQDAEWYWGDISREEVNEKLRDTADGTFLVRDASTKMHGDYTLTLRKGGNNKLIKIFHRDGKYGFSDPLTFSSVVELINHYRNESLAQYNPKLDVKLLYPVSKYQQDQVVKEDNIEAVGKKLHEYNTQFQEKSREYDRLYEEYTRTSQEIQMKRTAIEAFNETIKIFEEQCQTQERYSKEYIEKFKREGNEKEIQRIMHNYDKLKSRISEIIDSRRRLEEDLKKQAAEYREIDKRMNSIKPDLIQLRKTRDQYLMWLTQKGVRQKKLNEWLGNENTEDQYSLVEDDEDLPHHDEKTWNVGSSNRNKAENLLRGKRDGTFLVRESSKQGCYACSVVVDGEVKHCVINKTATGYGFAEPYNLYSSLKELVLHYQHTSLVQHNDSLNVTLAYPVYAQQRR
Sequence of p110α/p85 (P42336 whole entry, species assumed): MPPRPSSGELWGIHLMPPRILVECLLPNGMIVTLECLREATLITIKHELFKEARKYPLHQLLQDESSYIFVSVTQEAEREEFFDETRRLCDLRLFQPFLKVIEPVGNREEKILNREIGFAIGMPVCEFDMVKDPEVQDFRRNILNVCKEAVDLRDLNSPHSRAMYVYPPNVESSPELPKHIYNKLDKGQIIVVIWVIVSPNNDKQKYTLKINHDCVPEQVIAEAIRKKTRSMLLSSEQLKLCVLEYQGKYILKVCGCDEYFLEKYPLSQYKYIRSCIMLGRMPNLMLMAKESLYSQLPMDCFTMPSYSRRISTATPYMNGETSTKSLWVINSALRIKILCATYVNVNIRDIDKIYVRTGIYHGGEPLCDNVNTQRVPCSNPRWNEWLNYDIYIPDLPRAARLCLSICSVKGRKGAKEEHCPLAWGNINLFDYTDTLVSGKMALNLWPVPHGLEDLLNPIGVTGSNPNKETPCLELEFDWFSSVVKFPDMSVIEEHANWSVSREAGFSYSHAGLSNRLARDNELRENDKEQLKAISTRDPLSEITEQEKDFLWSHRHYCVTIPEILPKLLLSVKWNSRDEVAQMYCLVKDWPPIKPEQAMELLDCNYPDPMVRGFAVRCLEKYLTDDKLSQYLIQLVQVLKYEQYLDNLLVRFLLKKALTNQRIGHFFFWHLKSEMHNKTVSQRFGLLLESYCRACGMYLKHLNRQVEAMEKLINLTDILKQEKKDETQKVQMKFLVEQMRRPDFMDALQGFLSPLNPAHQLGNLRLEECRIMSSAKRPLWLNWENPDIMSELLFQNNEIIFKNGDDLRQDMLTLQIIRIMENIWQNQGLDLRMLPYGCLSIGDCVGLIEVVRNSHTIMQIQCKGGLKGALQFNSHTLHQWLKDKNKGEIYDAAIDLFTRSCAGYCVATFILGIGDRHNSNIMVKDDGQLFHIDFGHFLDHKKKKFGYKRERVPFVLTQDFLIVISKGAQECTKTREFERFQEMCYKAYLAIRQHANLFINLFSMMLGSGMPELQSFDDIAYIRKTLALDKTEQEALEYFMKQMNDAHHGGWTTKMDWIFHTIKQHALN
Sequence of p110α/p85 (P27986 whole entry partner, species assumed): as the sequence (P27986 whole entry partner, species assumed) above
Sequence of p110δ/p85 (O00329 whole entry, species assumed): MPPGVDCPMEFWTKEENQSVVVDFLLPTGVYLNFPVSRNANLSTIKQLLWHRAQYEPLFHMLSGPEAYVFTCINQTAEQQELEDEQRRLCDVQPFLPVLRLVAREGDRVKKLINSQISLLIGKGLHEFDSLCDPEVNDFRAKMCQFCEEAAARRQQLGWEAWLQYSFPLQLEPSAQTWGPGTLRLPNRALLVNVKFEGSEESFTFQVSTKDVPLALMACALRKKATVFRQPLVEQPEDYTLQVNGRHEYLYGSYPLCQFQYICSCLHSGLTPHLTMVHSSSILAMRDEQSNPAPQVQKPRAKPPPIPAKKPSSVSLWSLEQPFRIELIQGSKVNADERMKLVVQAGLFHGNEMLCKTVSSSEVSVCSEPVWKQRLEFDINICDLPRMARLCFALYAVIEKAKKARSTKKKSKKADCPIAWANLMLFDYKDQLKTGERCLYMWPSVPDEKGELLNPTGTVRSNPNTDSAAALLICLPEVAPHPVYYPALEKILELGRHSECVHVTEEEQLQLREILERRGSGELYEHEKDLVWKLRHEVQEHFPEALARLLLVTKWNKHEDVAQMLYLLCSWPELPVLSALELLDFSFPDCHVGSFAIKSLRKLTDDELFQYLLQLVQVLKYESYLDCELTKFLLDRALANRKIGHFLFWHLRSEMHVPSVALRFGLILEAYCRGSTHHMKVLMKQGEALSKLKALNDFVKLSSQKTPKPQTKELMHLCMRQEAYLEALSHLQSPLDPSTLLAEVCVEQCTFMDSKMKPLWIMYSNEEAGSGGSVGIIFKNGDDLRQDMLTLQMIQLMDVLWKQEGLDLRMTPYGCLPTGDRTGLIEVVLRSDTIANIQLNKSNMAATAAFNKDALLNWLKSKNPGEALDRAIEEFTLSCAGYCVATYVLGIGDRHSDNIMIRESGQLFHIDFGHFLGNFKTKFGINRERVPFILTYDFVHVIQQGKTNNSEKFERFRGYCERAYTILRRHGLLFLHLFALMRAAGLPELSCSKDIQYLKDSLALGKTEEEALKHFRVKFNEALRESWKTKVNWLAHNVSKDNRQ
Sequence of p110δ/p85 (P27986 whole entry partner, species assumed): as the sequence (P27986 whole entry partner, species assumed) above

Consider `Cc1ccc([N+](=O)[O-])cc1S(=O)(=O)N(C)N=Cc1cnn2ccccc12` [E1, N,2-Dimethyl-5-nitro-N′-(pyrazolo[1,5-a]pyridin-3-ylmethylene)benzene-sulfonohydrazide], for which the IC50 was 3400 nM on p110δ/p85, 190 nM at p110α/p85 (setting [1]), 0.66 µM with NZOV9 and 0.47 µM with NZB5.
In the case of `Cc1ccn2ncc(C=NN(C)S(=O)(=O)c3cc([N+](=O)[O-])ccc3C)c2c1` [E2, N,2-Dimethyl-N′-((5-methylpyrazolo[1,5-a]pyridin-3-yl)methylene)-5-nitro-benzenesulfonohydrazide], the IC50 on p110δ/p85 is 640 nM; on p110α/p85 (setting [1]) it was 110 nM; with NZOV9 it was 0.07 µM; with NZB5, 0.05 µM; at p110β/p85, above 1000 nM.
On the same counts, the results for `Cc1ccn2nc(C)c(C=NN(C)S(=O)(=O)c3cc([N+](=O)[O-])ccc3C)c2c1` [E4, N′-((2,5-Dimethylpyrazolo[1,5-a]pyridin-3-yl)methylene)-N,2-dimethyl-5-nitrobenzenesulfonohydrazide] are above 1000 nM, 870 nM, 20 µM, 15 µM and above 1000 nM.
As for `COC(=O)c1ccn2ncc(C=NN(C)S(=O)(=O)c3cc([N+](=O)[O-])ccc3C)c2c1` [E6, Methyl 3-((2-methyl-2-(2-methyl-5-nitrophenylsulfonyl)hydrazono)methyl)pyrazolo[1,5-a]pyridine-5-carboxylate], the half-maximal inhibitory concentration (IC50) was 790 nM at p110δ/p85; 260 nM on p110α/p85 (setting [1]); 1.5 µM with NZOV9; 1.8 µM in the experiment with NZB5; above 1000 nM on p110β/p85.
As to `COc1ccn2ncc(C=NN(C)S(=O)(=O)c3cc([N+](=O)[O-])ccc3C)c2c1` [E9, N′-((5-Methoxypyrazolo[1,5-a]pyridin-3-yl)methylene)-N,2-dimethyl-5-nitrobenzenesulfonohydrazide], the IC50 is above 1000 nM on p110δ/p85; 230 nM on p110α/p85 (setting [1]); 0.52 µM in the experiment with NZOV9; 0.94 µM in the experiment with NZB5; above 1000 nM on p110β/p85.
On to `Cc1ccc([N+](=O)[O-])cc1S(=O)(=O)N(C)N=Cc1cnn2ccc(I)cc12` [E15, N′-((5-Iodopyrazolo[1,5-a]pyridin-3-yl)methylene)-N,2-dimethyl-5-nitro-benzenesulfonohydrazide], for which the IC50 on p110δ/p85 is 240 nM; against p110α/p85 it was 23 nM; in the experiment with NZOV9, 0.05 µM; with NZB5, 0.04 µM; on p110β/p85, 720 nM.
On to `Cc1ccc([N+](=O)[O-])cc1S(=O)(=O)N(C)N=Cc1cnn2ccc(C3CC3)cc12` [E17, N′-((5-cyclopropylpyrazolo[1,5-a]pyridin-3-yl)methylene)-N,2-dimethyl-5-nitrobenzenesulfonohydrazide], for which the IC50 was above 1000 nM at p110δ/p85; 330 nM on p110α/p85 (setting [1]); 0.67 µM with NZOV9; 0.74 µM in the experiment with NZB5; above 1000 nM at p110β/p85.
Take `C#Cc1ccn2ncc(C=NN(C)S(=O)(=O)c3cc([N+](=O)[O-])ccc3C)c2c1` [E18, N′-((5-Ethynylpyrazolo[1,5-a]pyridin-3-yl)methylene)-N,2-dimethyl-5-nitrobenzenesulfonohydrazide]: the IC50 on p110δ/p85 stood at 43 nM; at p110α/p85 (setting [1]), 1.4 nM; with NZOV9, 0.11 µM; in the experiment on NZB5, 0.16 µM; at p110β/p85 it was 47 nM.
For the compound `Cc1ccc(F)cc1S(=O)(=O)N(C)N=Cc1cnn2ccc(C#N)cc12` [E27, N′-((5-Cyanopyrazolo[1,5-a]pyridin-3-yl)methylene)-5-fluoro-N,2-dimethylbenzenesulfonohydrazide], the IC50 on p110δ/p85 is 340 nM; on p110α/p85 (setting [1]) it was 86 nM; in the experiment on NZOV9, 14 µM; in the experiment on NZB5, above 20 µM; on p110β/p85 it was 870 nM.
As to `CC(C)c1ccc([N+](=O)[O-])cc1S(=O)(=O)N(C)N=Cc1cnn2ccc(C#N)cc12` [E33, N′-((5-Cyanopyrazolo[1,5-a]pyridin-3-yl)methylene)-2-isopropyl-N-methyl-5-nitrobenzenesulfonohydrazide], the IC50 on p110δ/p85 worked out at 40 nM; on p110α/p85 (setting [1]), 1.8 nM; in the experiment on NZOV9 it was 0.26 µM; in the experiment with NZB5, 0.19 µM; at p110β/p85, 300 nM.
Turning to `CN(N=Cc1cnn2ccc(C#N)cc12)S(=O)(=O)c1cc([N+](=O)[O-])ccc1Cl` [E34, 2-Chloro-N′-((5-cyanopyrazolo[1,5-a]pyridin-3-yl)methylene)-N-methyl-5-nitrobenzenesulfonohydrazide], the IC50 was determined as 0.35 µM in the experiment with NZOV9 and 0.88 µM in the experiment with NZB5.
As for `Cc1ccc(C#N)cc1S(=O)(=O)N(CCO)N=Cc1cnn2ccc(C#N)cc12` [E40, 5-Cyano-N′-((5-cyanopyrazolo[1,5-a]pyridin-3-yl)methylene)-N-(2-hydroxyethyl)-2-methylbenzenesulfonohydrazide], the IC50 stood at 25 nM at p110δ/p85; 3 nM at p110α/p85 (setting [1]); 0.62 µM in the experiment on NZOV9; 3.2 µM in the experiment on NZB5; 23 nM on p110β/p85.
The corresponding values for `Cc1ccc([N+](=O)[O-])cc1S(=O)(=O)NN=Cc1cnn2ccc(C#N)cc12` [E42, N′-((5-Cyanopyrazolo[1,5-a]pyridin-3-yl)methylene)-2-methyl-5-nitro-benzenesulfonohydrazide] are 580 nM, 13 nM, 4.9 µM, 2.5 µM and 620 nM.
On the same counts, the results for `Cc1ccc([N+](=O)[O-])cc1S(=O)(=O)N(CCN(C)C)N=Cc1cnn2ccc(C#N)cc12` [E46, N′-((5-Cyanopyrazolo[1,5-a]pyridin-3-yl)methylene)-N-(2-(dimethylamino)ethyl)-2-methyl-5-nitrobenzenesulfonohydrazide] are 130 nM, 30 nM, 0.4 µM, 0.37 µM and 200 nM.
As to `Cc1ccc([N+](=O)[O-])cc1S(=O)(=O)N(CCN1CCOCC1)N=Cc1cnn2ccc(C#N)cc12` [E47, N′-((5-Cyanopyrazolo[1,5-a]pyridin-3-yl)methylene)-2-methyl-N-(2-morpholinoethyl)-5-nitrobenzenesulfonohydrazide], the IC50 is 10 nM at p110δ/p85; 4.5 nM on p110α/p85 (setting [1]); 0.55 µM in the experiment with NZOV9; 0.51 µM with NZB5; 230 nM on p110β/p85.
With `CN(N=Cc1cnn2ccc(C#N)cc12)S(=O)(=O)c1cc([N+](=O)[O-])ccc1NCCN1CCOCC1` [E58, N′-((5-Cyanopyrazolo[1,5-a]pyridin-3-yl)methylene)-N-methyl-2-(2-morpholinoethylamino)-5-nitrobenzenesulfonohydrazide hydrochloride], the half-inhibitory concentration (IC50) was 26 nM on p110δ/p85; 9 nM on p110α/p85 (setting [1]); above 20 µM with NZOV9; 9.4 µM in the experiment on NZB5; above 1000 nM at p110β/p85.
Turning to `CN(N=Cc1cnn2ccc(C#N)cc12)S(=O)(=O)c1cc([N+](=O)[O-])ccc1NCCc1c[nH]cn1` [E63, 2-(2-(1H-Imidazol-4-yl)-ethylamino)-N′-((5-cyanopyrazolo[1,5-a]pyridin-3-yl)methylene)-N-methyl-5-nitrobenzenesulfonohydrazide hydrochloride], the IC50 at p110δ/p85 is 320 nM; on p110α/p85 (setting [1]) it was 55 nM; in the experiment on NZOV9 it was 0.61 µM; with NZB5, 0.82 µM; on p110β/p85, above 1000 nM.

One may read the IC50 as the concentration that gives 50% inhibition.
